Each structure is given as a SMILES string.

One data set is described as follows: in vitro. As to conditions: human, hela cells.
On to `O=C(CC(c1ccccc1)c1c(O)c2ccccc2oc1=O)c1ccc(-c2ccc(Br)cc2)cc1` (stereo not shown) [CBK260877], for which the viability at 28.5 h, 10 µM is 91.8%.

The same data set, now with this note: human, hela cells, % viability.
Consider `S=c1nc(-c2ccco2)n(Cc2ccccc2)c(=S)n1/C(=N/Cc1ccccc1)c1ccco1` [CBK223550], for which the viability at 28.5 h, 10 µM turned out to be 108%. Regarding `O=C1CC(=O)N(Cc2ccccc2)C(=O)N1` [CBK224014], the viability at 28.5 h, 10 µM was 91.7%. The same measure, in the same setting: under `O=C(O)CSc1nc2ccccc2[nH]1` [CBK225127] stands 95.3%. In the case of `COc1cc(NC(=O)c2ccccc2)c(C(=O)O)cc1OC` [CBK227754], the viability at 28.5 h, 10 µM stood at 89.9%. On the same count and under the same terms, under `N/C(CC(=O)Nc1cc(Cl)cc(Cl)c1)=N\O` [CBK228614] stands 105%.

For `O=C(O)C1C(C(=O)O)C1C(=O)O` (stereo not shown) [CBK230432], the viability at 28.5 h, 10 µM is 94.9%. On the same count and under the same terms, then `O=S(=O)(Oc1ccccc1)c1ccc2c(c1)Cc1cc(S(=O)(=O)Oc3ccccc3)ccc1-2` [CBK231928], with 88.5%; and `O=S(=O)(NCCSCc1ccco1)c1ccc(Cl)cc1` [CBK232206], with 85.6%. As for `O=C(O)COCC(=O)N1CCN(C(c2ccccc2)c2ccccc2)CC1` [CBK232579], the viability at 28.5 h, 10 µM is 84.3%. On the same count and under the same terms, then `Cc1nc(C)c(C(=O)C2=C(O)C(=O)N(CCCN3CCOCC3)C2c2ccncc2)s1` (stereo not shown) [CBK235187], with 97.3%; and `COc1ccc(NCc2cc(=O)oc3cc4c(cc23)CCC4)cn1` [CBK235362], with 88%. As to `Cn1c(=O)c2c(nc(CN3CCC(Cc4ccccc4)CC3)n2CC(=O)c2ccccc2)n(C)c1=O` [CBK236846], the viability at 28.5 h, 10 µM stood at 88%. Same read-out and setting: under `Cc1nc(CN2CCN(c3ccc4nnc(C(F)(F)F)n4n3)CC2)cs1` [CBK239750] stands 95.1%. The same measure, in the same setting: under `N#Cc1nc(-c2ccco2)oc1N1CCN(C(=O)c2cc3c(s2)CCCCC3)CC1` [CBK240763] stands 93.9%; under `O=C(NC1CCN(c2ncccn2)CC1)c1ccc[nH]c1=S` [CBK241695], 83.9%; under `CCS(=O)(=O)N1CCC(NC(=O)NC(C)c2ccccc2Cl)CC1` (stereo not shown) [CBK242304], 95.3%. `COc1cc(Br)c(OC)c(C(=O)N(C)Cc2cnn(C)c2)c1` [CBK244011]: the viability at 28.5 h, 10 µM was determined as 102%.

For the compound `CC(=O)Nc1nc(C(=O)N2CCOC(c3ccc(F)cc3)C2)cs1` (stereo not shown) [CBK244238], the viability at 28.5 h, 10 µM is 99.3%.

For the compound `Cc1ccc(C(=O)NCCNc2cnccn2)cc1S(C)(=O)=O` [CBK246280], the viability at 28.5 h, 10 µM came out at 103%. The same measure, in the same setting: under `Cc1c(Cl)cccc1NC(=O)c1cnc2sccn2c1=O` [CBK246518] stands 115%. Still for that read-out and setting: then `Cc1cc(Br)ccc1NC(=O)c1cnc2sccn2c1=O` [CBK246520], with 112%; and `CCc1noc(C)c1C(=O)NC(C)c1cc2ccccc2o1` (stereo not shown) [CBK247065], with 87.1%.

In the case of `CCOc1cc2c(cc1NC(=O)CN(c1cccc(Cl)c1)S(C)(=O)=O)OC(C)C2` (stereo not shown) [CBK248179], the viability at 28.5 h, 10 µM stood at 94.6%.

With `Cc1nn(CC(C)C)c(Cl)c1C(=O)Nc1nc2ccc(F)cc2s1` [CBK252188], the viability at 28.5 h, 10 µM turned out to be 90.4%. Still for that read-out and setting: then `O=C(Cn1cnc2ccc(F)cc2c1=O)N1CCOC2CCCCC21` (stereo not shown) [CBK253316], with 80.5%.

In the case of `CN(CC(=O)NCc1ccco1)C1CCCCCC1` [CBK254305], the viability at 28.5 h, 10 µM turned out to be 97.3%.

In the case of `CCOc1ncccc1NC(=O)Cc1cccc(OC)c1` [CBK256406], the viability at 28.5 h, 10 µM was found to be 94.8%.

Regarding `Cc1cc(NC(=O)NC2CCSc3ccccc32)no1` (stereo not shown) [CBK259296], the viability at 28.5 h, 10 µM worked out at 74.8%. Still for that read-out and setting: then `N#Cc1cccc(C(=O)NCCc2nnc3n2CCCCC3)c1` [CBK259813], with 105%; and `Cc1[nH]c2ccccc2c1C(=O)CCC(=O)O` [CBK260871], with 95.5%; and `Oc1n[nH]c2c1CCC2` [CBK260873], with 95.4%.

As to `Cc1n[nH]c(NN)c1Cl` [CBK260876C], the viability at 28.5 h, 10 µM was 89.5%. Same read-out and setting: under `CC(=O)O[B-]1(OC(C)=O)N(c2ccc(S(N)(=O)=O)cc2)N=C(c2ccccc2)N=[N+]1c1ccccc1` [CBK260879] stands 87.1%; under `C(=N\c1cccc2c(/N=C/c3c[nH]c4ccccc34)cccc12)/c1c[nH]c2ccccc12` [CBK260887], 95.8%. Take `Oc1ccc2[nH]cc(CCNC(c3ccccc3)(c3ccccc3)c3ccccc3)c2c1` [CBK260891]: the viability at 28.5 h, 10 µM was found to be 103%.

In the case of `O=C(CSS(=O)(=O)O)NCc1ccccc1` [CBK260897N], the viability at 28.5 h, 10 µM came to 105%.

`COc1ccc2sc(C)[n+](CCC(=O)O)c2c1` [CBK260899B]: the viability at 28.5 h, 10 µM was 83.5%. Still for that read-out and setting: under `O=S(=O)(O)CCCSc1nc2ccccc2s1` [CBK260900N] stands 100%; under `O=C(O)CNc1ccccc1C(=O)O` [CBK260902], 120%. Same read-out and setting: under `O=C(O)C1CSC(c2cccnc2)N1` (stereo not shown) [CBK260910] stands 111%; under `O=C(Nc1cccc2c(NC(=O)C3CC3c3ccccc3)cccc12)C1CC1c1ccccc1` (stereo not shown) [CBK260911], 99.1%. Same read-out and setting: under `O=C(O)c1ccc(NC(=O)c2nccnc2C(=O)O)cc1` [CBK260916] stands 97.7%; under `CCOC(=O)c1c(NC(=O)Cn2cnc3ccccc32)sc2c1CCCC2` [CBK260917], 106%; under `O=[N+]([O-])c1ccc(O)c(/C=N/Nc2nc(Nc3ccc(Cl)cc3)nc(N3CCOCC3)n2)c1` [CBK260918], 90.2%. For the compound `C/C(=N/Nc1ccc([N+](=O)[O-])cc1[N+](=O)[O-])C1CC1` [CBK260921], the viability at 28.5 h, 10 µM was 104%. Same read-out and setting: then `O=C1/C(=N\Nc2ccc([N+](=O)[O-])cc2[N+](=O)[O-])c2ccccc2N1CN1CCCCC1` [CBK260926], with 94.4%; and `O=C1/C(=N\Nc2ccc([N+](=O)[O-])cc2[N+](=O)[O-])c2cc(Br)ccc2N1CN1CCCCC1` [CBK260927], with 110%; and `OCCOc1ccccc1OCCO` [CBK260930], with 93.6%.

As to `O=C(O)CC(CP(c1ccccc1)c1ccccc1)C(=O)O` (stereo not shown) [CBK260931], the viability at 28.5 h, 10 µM stood at 77.6%. For `CC(C)(C)NS(=O)(=O)c1ccccc1[N+](=O)[O-]` [CBK260932], the viability at 28.5 h, 10 µM came to 97.8%. On the same count and under the same terms, under `O=C(O)CCCC(=O)OCc1ccco1` [CBK260933] stands 98.1%; under `O=S(=O)(O)c1cc(O)c2c(/N=N/c3c(S(=O)(=O)O)cc4cc(S(=O)(=O)O)cc(O)c4c3O)cc(S(=O)(=O)O)cc2c1` [CBK260934], 102%. For `C/C(=N\NC(=O)c1ccccc1I)c1cccc(N)c1` [CBK260935], the viability at 28.5 h, 10 µM was 107%.

For the compound `O=C(O)/C=C(/CC(=O)O)C(=O)O` [CBK260936], the viability at 28.5 h, 10 µM was 102%.

As to `O=C(NC(Cc1ccc(O)cc1)C(=O)O)c1ccccc1` (stereo not shown) [CBK260937], the viability at 28.5 h, 10 µM came to 88.4%. On to `CC(CSSCC(C)C(=O)O)C(=O)O` (stereo not shown) [CBK260940], for which the viability at 28.5 h, 10 µM amounted to 96.7%. The same measure, in the same setting: under `CC(Cc1c[nH]c2ccccc12)NC(=O)CSS(=O)(=O)O` (stereo not shown) [CBK260942N] stands 93.3%; under `COc1ccc2[nH]c(C(=O)O)c(CCNC(C)=O)c2c1` [CBK260943N], 113%. In the case of `CC(=O)c1ccc2[nH]c(C(=O)O)c(CCN)c2c1` [CBK260944], the viability at 28.5 h, 10 µM is 91.6%.

With `CC(=O)NCCc1c(C(=O)O)[nH]c2ccc(OCc3ccccc3)cc12` [CBK260945], the viability at 28.5 h, 10 µM turned out to be 87.8%. Same read-out and setting: then `CCn1c(C)nc2cc(S(N)(=O)=O)ccc21` [CBK260950], with 92.1%; and `O=C(O)CCC(=O)Nc1ccc(C(=O)O)cc1` [CBK260952], with 96.6%.

In the case of `O=S(=O)(Nc1nc2ccccc2nc1Nc1ccccc1)c1ccccc1` [CBK260953], the viability at 28.5 h, 10 µM came to 94.5%. Same read-out and setting: then `O=C(O)C(O)C(O)c1nc2ccccc2[nH]1` (stereo not shown) [CBK260955], with 107%; and `N#Cc1ccc(Oc2ccc(C(=O)C(=O)c3ccccc3)cc2)cc1C#N` [CBK260959], with 100%. On the same count and under the same terms, under `CC(C)(c1ccc(OC(=O)c2ccc(N)cc2)cc1)c1ccc(OC(=O)c2ccc(N)cc2)cc1` [CBK260962] stands 91.2%; under `O=C(CCN1C(=O)c2ccccc2C1=O)N1CCOCCOCCN(C(=O)CCN2C(=O)c3ccccc3C2=O)CCOCCOCC1` [CBK260964], 89.9%; under `NC(=O)CCC(NC=O)C(=O)O` (stereo not shown) [CBK260967], 88.4%. The same measure, in the same setting: under `CC(C(=O)O)c1cc(C(=O)c2ccccc2)sc1-c1ccccc1` (stereo not shown) [CBK260968] stands 91.3%; under `Cc1ccc(N)c(C(=O)CCCCC(=O)O)c1` [CBK260970], 90.5%.

As to `O=[N+]([O-])c1ccccc1/C=N/Nc1nnn[nH]1` [CBK260971], the viability at 28.5 h, 10 µM was 106%.

On to `Oc1ccc(/C=N/Nc2nnn[nH]2)c(O)c1` [CBK260972], for which the viability at 28.5 h, 10 µM came to 99%. For the compound `c1ccc2c(c1)n[n+]1c3ccccc3[n-]n21` [CBK260974], the viability at 28.5 h, 10 µM is 85.7%. Turning to `Cc1cc(C)nc(SCCC(=O)O)n1` [CBK260975], the viability at 28.5 h, 10 µM turned out to be 87.7%.

Take `Oc1ccc(/C=N/c2nnn[nH]2)cc1` [CBK260976]: the viability at 28.5 h, 10 µM turned out to be 101%. The same measure, in the same setting: under `Oc1cccc(/C=N/c2nnn[nH]2)c1` [CBK260977] stands 91.7%; under `O=C1C2C(c3ccccc3)NC(c3ccccc3)C1C(c1ccccc1)NC2c1ccccc1` (stereo not shown) [CBK260981], 93%.

Consider `COc1cccc(/C=C/C2=NN(c3cccc(F)c3)C(c3cccc(OC)c3OC)C2)c1OC` (stereo not shown) [CBK260983], for which the viability at 28.5 h, 10 µM turned out to be 104%.

On to `Cc1ccc(S(=O)(=O)OCCOS(=O)(=O)c2ccc(C)cc2)cc1` [CBK260986], for which the viability at 28.5 h, 10 µM was 96.2%. Still for that read-out and setting: under `O=C(O)/C=C/C(=O)Nc1cccc(C(=O)O)c1` [CBK260988] stands 97.7%.

The data set is the same for the next values; noted with them: human, hela cells, % viability, bulk resorufin, single well.
In the case of `NCCc1c[nH]c2ccc(OCc3ccccc3)cc12` [CBK260980C], the viability at 28.5 h, 10 µM was determined as 84.9%.

The term viability denotes a read-out of living cells in per cent, often relative to untreated cells.

These data come from paper PMC12040169 (PLOS Biology, 2025).
